Results on one molecule are retold here after paper PMC10970734, “Identification of an Intravenous Injectable NK1 Receptor Antagonist for Use in Traumatic Brain Injury” (International Journal of Molecular Sciences, 2024).

SMILES strings stand for the structures. Entries after “also recorded” stand apart in the source; their conditions may differ.

For test [1], the target named is Adenosine A2A (Homo sapiens, UniProt P29274). The test is described as follows: Cerep selectivity profiling, receptor antagonism. In kind it is biochemical. The method, then:
(§1) The pharmacological specificity of EUC-001 was assessed using the commercially available selectivity profiling services provided by Cerep (Celle l’Evescault, France). Initially, the activity of EUC-001, at a fixed concentration of 10 μM, was evaluated in a range of assays to assess pharmacological selectivity relative to other cell-surface receptors, ion channels and transport proteins. Where any significant binding was detected, further assays were performed to quantify potential non-selective activity. […] In terms of this non-specific activity, the IC50s are approximately 3.6 log units greater than that required for NK1R antagonism.
(§2) The pharmacological specificity of EUC-001 was assessed using the commercially available selectivity profiling services provided by Cerep (Celle l’Evescault, France). For initial screens, the binding of EUC-001 (synthesized by Hoffmann-La Roche, Basel, Switzerland) at a fixed concentration of 10 μM was evaluated in a range of assays to assess pharmacological selectivity relative to other cell-surface receptors, ion channels and transport proteins.
(§3) For agonist activity, results are expressed as a percentage of the control agonist response induced by the selective NK1R agonist [Sar^9, Met(O2)^11]-substance P (100 nM) for a range of concentrations of EUC-001. Antagonist activity is expressed as a percentage change in the response induced by 3 nM [Sar^9, Met(O2)^11]-SP (R&D systems) across a range of concentrations of EUC-001. The EC50 values (concentration producing a half-maximal specific response) and IC50 values (concentration causing a half-maximal inhibition of the control specific agonist response) were determined by non-linear regression analysis of the concentration–response curves generated with mean replicate values using Hill equation curve fitting (Y = D + [(A − D)/(1 + (C/C50)nH)], where Y = specific response, D = minimum specific response, A = maximum specific response, C = compound concentration, and C50 = EC50 or IC50, and nH = slope factor). This analysis was performed using custom software developed at Cerep and validated by comparison with data generated by the commercial software SigmaPlot® 4.0 for Windows® (SPSS Inc., Chicago, IL, USA). For the antagonists, the apparent dissociation constants (KB) were calculated using the modified Cheng Prusoff equation (KB = IC50/(1 + (A/EC50A)), where A = concentration of reference agonist in the assay, and EC50A = EC50 value of the reference agonist).

For test [2], the target named is Dopamine D1 (Homo sapiens, UniProt P21728). The test is described as follows: Cerep selectivity profiling, receptor antagonism. In kind it is biochemical. The method, then: as §1, §2, §3
Dopamine D1, sequence (P21728 whole entry): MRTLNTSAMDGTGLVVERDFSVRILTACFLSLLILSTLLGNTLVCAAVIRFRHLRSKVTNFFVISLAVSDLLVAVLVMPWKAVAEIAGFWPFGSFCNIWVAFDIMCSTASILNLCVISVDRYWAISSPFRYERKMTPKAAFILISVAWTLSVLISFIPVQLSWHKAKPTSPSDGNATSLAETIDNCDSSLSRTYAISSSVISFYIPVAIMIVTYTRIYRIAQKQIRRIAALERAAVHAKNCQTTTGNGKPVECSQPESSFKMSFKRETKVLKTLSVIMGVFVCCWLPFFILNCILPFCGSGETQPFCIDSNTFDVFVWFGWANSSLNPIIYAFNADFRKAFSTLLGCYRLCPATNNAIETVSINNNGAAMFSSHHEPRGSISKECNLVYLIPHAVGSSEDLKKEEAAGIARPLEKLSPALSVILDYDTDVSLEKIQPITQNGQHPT
For test [3], the target named is Dopamine D2S (Homo sapiens, UniProt P14416). Put plainly: Cerep selectivity profiling, receptor antagonism. In kind it is biochemical. The method, then:
as §1, §2, §3

For test [4], the target named is Histamine H2 (Homo sapiens, UniProt P25021). Put plainly: Cerep selectivity profiling, receptor antagonism. The format is biochemical. The method, then:
as §1, §2, §3

Test [5] addresses Melanocortin MC4 (Homo sapiens, UniProt P32245). Put plainly: Cerep selectivity profiling, receptor antagonism. In kind it is biochemical. The method, then: as §1, §2, §3
In test [6] the target is T1, Muscarinic cholinergic M1 (Homo sapiens, UniProt P11229).
T1 sequence (P11229 1-460): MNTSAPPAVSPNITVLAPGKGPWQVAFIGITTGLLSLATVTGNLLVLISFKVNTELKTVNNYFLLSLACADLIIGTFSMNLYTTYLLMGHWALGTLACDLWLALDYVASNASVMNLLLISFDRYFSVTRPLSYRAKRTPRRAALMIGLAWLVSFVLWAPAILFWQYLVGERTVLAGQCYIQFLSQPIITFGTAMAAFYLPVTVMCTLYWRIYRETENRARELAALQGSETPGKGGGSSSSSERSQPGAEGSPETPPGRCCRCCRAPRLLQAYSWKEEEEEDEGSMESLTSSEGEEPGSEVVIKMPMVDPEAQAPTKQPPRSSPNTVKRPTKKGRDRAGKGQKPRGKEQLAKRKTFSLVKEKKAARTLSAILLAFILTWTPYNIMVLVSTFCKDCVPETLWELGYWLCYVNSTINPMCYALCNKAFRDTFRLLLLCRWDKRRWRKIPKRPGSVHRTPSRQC
Put plainly: Cerep selectivity profiling, receptor antagonism. The format is biochemical. The method, then: as §1, §2, §3

The target of test [7] is Muscarinic cholinergic M3 (Homo sapiens, UniProt P20309). Put plainly: Cerep selectivity profiling, receptor antagonism. In kind it is biochemical. The method, then: as §1, §2, §3
Muscarinic cholinergic M3, sequence (P20309 whole entry): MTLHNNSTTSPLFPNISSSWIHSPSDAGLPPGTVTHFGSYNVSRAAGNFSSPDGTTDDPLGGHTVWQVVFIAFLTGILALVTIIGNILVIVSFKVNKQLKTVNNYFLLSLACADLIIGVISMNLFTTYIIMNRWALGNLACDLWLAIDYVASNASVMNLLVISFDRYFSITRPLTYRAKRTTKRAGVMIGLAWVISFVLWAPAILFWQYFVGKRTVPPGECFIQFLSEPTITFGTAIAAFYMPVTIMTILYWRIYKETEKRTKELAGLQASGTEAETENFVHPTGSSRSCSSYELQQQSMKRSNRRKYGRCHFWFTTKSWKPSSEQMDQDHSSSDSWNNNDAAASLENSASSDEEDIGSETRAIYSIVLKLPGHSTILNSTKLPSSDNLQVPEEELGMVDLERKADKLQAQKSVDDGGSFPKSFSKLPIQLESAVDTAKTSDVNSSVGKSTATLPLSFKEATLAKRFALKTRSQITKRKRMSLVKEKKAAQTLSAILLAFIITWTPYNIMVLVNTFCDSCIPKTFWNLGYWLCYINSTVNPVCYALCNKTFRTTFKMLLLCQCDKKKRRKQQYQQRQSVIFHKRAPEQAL
In test [8] the target is Serotonin 5-HT1B (Homo sapiens, UniProt P28222). The test is described as follows: Cerep selectivity profiling, receptor antagonism. The format is biochemical. The settings on record: Serotonin 5-HT1B antagonism. The method, then: as §1, §2, §3
Serotonin 5-HT1B, sequence (P28222 whole entry): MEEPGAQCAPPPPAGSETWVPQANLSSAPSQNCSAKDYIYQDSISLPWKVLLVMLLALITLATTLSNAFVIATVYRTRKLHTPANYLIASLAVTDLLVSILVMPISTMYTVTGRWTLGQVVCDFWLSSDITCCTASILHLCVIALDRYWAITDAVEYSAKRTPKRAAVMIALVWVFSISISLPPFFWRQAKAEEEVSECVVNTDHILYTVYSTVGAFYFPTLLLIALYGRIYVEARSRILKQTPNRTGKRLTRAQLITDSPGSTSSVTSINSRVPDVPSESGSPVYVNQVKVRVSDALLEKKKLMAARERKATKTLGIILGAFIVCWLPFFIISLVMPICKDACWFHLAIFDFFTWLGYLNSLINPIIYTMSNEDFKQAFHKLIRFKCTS
Test [9] addresses Serotonin 5-HT2A (Homo sapiens, UniProt P28223). Put plainly: Cerep selectivity profiling, receptor antagonism. In kind it is biochemical. The conditions noted are these: Serotonin 5-HT2A antagonism. The method, then: as §1, §2, §3
The target in test [10] is Serotonin 5-HT5A (Homo sapiens, UniProt P47898). The test is described as follows: Cerep selectivity profiling, receptor antagonism. The format is biochemical. The settings on record: Serotonin 5-HT5A antagonism. The method, then: as §1, §2, §3
Serotonin 5-HT5A, sequence (P47898 whole entry): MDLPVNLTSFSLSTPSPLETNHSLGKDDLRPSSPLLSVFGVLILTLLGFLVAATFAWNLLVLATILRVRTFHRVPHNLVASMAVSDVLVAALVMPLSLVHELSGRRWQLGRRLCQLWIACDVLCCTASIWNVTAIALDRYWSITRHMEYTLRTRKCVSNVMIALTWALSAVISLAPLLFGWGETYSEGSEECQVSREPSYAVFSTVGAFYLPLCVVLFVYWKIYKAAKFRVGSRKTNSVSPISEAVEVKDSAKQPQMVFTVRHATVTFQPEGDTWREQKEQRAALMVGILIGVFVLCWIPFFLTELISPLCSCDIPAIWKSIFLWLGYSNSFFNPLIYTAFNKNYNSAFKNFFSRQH
Test [11] concerns the target NK1R (Homo sapiens, UniProt P25103). Put plainly: In vitro functional assay, free Ca2+ concentration in U373MG cells endogenously expressing NK1R. The arrangement: which endogenously express the NK1R; endogenous in cells; host or cells: U373MG human glioblastoma astrocytoma cells (ATCC). The format is cell-based. The method, then: In vitro functional assays were performed by assessing changes in free Ca^2+ ion concentration in human glioblastoma (U373MG) cells, which endogenously express the NK1R. Agonist activity of EUC-001 is expressed as a percentage of the agonist response induced by the selective NK1R agonist [Sar^9, Met(O2)^11]-substance P (100 nM; Figure 2A), whilst antagonist activity is expressed as a percentage change in the response induced by 3 nM [Sar^9, Met(O2)^11]-SP (Figure 2B).
Human glioblastoma astrocytoma (U373MG) cells (ATCC) were used for in vitro function studies involving intracellular calcium measurements. […] Intracellular calcium concentrations were determined by using the calcium chelating agent fura-2 (Molecular Probes, Waltham, MA, USA). Aliquots of fura-2-loaded cells were subject to agonist stimulation and fluorescence emission was recorded using an MS-5 spectrophotometer (Perkin Elmer, Shelton, CT, USA). Loading of cells, fluorescence monitoring, calibration procedures, and other experimental details were as previously described.
For agonist activity, results are expressed as a percentage of the control agonist response induced by the selective NK1R agonist [Sar^9, Met(O2)^11]-substance P (100 nM) for a range of concentrations of EUC-001. […]

NK1R, sequence (P25103 whole entry): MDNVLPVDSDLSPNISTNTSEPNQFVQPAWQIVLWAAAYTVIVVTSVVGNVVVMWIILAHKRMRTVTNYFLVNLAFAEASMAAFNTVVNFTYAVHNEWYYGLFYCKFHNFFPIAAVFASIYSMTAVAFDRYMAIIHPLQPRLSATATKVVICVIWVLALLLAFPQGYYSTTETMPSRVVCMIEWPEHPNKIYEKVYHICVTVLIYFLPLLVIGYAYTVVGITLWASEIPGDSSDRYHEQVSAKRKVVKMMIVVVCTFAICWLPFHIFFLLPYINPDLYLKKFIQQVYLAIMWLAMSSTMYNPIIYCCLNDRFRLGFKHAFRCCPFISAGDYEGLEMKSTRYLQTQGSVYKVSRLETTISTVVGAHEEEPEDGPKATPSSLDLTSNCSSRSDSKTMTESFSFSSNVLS
Histamine H2, sequence (P25021 whole entry): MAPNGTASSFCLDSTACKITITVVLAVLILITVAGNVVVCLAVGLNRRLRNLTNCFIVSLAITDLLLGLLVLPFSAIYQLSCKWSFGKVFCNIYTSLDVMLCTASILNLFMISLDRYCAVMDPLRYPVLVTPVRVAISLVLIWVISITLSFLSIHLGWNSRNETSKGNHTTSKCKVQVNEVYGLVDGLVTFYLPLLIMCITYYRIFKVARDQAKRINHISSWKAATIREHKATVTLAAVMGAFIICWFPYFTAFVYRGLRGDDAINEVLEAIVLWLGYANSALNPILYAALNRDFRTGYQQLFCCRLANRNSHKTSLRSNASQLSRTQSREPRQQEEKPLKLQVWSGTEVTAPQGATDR
Adenosine A2A, sequence (P29274 whole entry): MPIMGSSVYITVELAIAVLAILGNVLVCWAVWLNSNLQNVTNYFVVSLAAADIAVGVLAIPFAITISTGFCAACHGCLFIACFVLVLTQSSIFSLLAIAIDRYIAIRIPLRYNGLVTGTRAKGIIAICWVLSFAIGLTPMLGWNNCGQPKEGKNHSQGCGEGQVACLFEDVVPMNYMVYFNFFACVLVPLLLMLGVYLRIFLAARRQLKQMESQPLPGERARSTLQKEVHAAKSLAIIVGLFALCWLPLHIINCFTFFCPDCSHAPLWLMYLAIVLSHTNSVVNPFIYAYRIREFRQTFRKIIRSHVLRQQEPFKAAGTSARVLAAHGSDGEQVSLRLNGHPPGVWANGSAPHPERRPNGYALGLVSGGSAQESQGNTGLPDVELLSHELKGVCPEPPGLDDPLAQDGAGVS
Serotonin 5-HT2A, sequence (P28223 whole entry): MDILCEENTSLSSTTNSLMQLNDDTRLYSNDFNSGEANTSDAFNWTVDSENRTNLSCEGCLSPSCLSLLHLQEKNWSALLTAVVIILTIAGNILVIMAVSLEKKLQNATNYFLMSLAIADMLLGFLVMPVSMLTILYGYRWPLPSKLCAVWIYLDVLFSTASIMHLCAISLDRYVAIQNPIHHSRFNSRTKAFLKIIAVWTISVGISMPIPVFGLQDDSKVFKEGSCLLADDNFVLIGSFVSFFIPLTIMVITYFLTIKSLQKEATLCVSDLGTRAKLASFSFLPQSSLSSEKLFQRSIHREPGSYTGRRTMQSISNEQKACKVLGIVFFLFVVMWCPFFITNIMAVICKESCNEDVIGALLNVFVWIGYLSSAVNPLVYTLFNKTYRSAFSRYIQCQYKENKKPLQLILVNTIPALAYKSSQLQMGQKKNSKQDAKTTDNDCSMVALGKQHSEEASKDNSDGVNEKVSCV
Dopamine D2S, sequence (P14416 1-414 isoform P14416-2): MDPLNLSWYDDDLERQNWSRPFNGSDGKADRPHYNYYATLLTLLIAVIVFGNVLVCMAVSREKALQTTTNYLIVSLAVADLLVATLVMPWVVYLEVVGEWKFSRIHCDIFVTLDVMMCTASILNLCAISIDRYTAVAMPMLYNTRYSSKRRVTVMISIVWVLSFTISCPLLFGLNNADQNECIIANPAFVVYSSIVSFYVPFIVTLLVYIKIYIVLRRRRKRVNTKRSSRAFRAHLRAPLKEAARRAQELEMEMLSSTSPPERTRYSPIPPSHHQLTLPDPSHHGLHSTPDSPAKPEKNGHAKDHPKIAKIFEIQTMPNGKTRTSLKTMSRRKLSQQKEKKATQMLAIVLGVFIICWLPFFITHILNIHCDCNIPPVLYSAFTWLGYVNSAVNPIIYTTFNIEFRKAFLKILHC
Melanocortin MC4, sequence (P32245 whole entry): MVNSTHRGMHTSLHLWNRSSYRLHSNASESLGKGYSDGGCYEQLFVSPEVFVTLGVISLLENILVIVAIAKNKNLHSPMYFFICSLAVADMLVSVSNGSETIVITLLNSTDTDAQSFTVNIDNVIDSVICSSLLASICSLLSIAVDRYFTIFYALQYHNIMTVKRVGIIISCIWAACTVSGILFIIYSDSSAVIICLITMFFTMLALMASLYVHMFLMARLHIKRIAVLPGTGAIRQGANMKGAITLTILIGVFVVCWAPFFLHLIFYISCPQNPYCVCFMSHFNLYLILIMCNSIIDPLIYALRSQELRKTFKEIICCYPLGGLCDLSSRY

`Cc1ccccc1-c1cc(N2CCN(C)CC2)ncc1C(=O)N(C)Cc1cc(C(F)(F)F)cc(C(F)(F)F)c1` [EUC-001, N-(3,5-Bis-trifluoromethyl-benzyl)-N-methyl-6-(4-methyl-piperazine-1-yl)-4-o-tolyl-nicotinamide]: the IC50 came to 30 µM in test [1]; 16 µM in test [2]; 16 µM in test [4]; 13 µM in [5]; 3.3 µM in test [6]; 3.3 µM in test [7]. The half-inhibitory concentration (IC50) in test [8] came out at 6.1 µM; in test [9], 15 µM; in test [10], 4 µM; in [11] (3 nM [Sar9, Met(O2)11]-SP, read-out: IC50, inhibition of [Sar9, Met(O2)11]-SP-mediated response), 0.00069 µM. Moreover, the “IC50 (M)” value in test [3] was “Not calculable”. In [11], the “Agonist activity, percentage of response to 100 nM [Sar9, Met(O2)11]-substance P” value is “did not exhibit any detectable agonist activity; also recorded: no agonist activity”.
